Molecular target: USP1 (construct USP1 (I-785, GG670, 671AA)/UAF1 (I-677)-Flag) (Homo sapiens (Human), UniProt O94782, G670A/G671A)
Test: Ubiquitin-Rhodamine 110 assay for USP1 activity
Type: biochemical
Details: USP1/UAF1 25 pM, Ub-Rh110 25 nM, 30 min preincubation
Procedure, shortened: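 Two formats with the USP1/UAF1 complex and 25 nM ubiquitin-rhodamine 110 in pH 8.0 Tris buffer with calcium, glutathione and detergent. Single-point screening used 10 µM, 100 pM enzyme and 45 min. Inhibition was set against no-enzyme and DMSO wells.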

USP1 (construct USP1 (I-785, GG670, 671AA)/UAF1 (I-677)-Flag), sequence (O94782 whole entry G670A/G671A): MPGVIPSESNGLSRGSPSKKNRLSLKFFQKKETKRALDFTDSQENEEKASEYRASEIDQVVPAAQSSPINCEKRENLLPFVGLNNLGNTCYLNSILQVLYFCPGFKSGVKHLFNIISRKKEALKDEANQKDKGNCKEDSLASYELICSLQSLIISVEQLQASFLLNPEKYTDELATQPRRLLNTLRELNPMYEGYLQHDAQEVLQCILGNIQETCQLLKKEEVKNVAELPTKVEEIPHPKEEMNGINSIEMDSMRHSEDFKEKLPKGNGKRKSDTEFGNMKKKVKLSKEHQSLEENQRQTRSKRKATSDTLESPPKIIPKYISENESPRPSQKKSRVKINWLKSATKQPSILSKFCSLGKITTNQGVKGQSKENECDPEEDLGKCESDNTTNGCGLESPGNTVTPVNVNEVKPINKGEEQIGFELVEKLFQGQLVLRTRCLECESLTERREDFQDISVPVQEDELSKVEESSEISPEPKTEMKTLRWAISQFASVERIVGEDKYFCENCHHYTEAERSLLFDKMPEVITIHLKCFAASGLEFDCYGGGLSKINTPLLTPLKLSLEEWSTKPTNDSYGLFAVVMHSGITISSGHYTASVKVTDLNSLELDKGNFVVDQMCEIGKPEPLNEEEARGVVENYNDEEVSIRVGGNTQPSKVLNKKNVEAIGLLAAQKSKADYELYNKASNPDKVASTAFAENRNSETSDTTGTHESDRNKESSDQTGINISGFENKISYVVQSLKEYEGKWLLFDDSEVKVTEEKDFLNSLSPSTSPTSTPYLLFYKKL
USP1 (construct USP1 (I-785, GG670, 671AA)/UAF1 (I-677)-Flag), sequence (Q8TAF3 whole entry partner): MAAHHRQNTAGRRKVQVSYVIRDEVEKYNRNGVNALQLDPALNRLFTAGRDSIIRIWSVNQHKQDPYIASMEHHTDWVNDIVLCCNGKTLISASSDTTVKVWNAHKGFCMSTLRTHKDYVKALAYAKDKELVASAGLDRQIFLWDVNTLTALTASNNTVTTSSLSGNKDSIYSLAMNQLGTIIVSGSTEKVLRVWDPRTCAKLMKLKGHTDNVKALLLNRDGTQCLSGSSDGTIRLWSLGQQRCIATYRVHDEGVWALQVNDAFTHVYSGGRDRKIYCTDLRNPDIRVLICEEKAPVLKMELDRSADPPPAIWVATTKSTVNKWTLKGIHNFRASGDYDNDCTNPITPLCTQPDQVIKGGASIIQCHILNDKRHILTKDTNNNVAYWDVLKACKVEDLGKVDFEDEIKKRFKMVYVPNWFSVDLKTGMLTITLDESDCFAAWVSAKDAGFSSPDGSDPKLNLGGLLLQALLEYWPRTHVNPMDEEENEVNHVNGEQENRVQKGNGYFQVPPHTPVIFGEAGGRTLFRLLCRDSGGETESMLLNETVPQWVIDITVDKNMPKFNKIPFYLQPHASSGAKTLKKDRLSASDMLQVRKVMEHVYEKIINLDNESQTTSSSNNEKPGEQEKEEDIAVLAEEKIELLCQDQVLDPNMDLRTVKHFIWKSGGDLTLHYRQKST

| SMILES | IC50 |
| --- | --- |
| CNc1nc(-c2ccccc2C(C)C)nc2c1[nH]c(=O)n2Cc1ccc(-c2nc(C(F)(F)F)cn2C)cc1 [Compound I-532, 2-(2-Isopropylphenyl)-9-(4-(1-methyl-4-(trifluoromethyl)-1H-imidazol-2-yl)benzyl)-6-(methylamino)-7,9-dihydro-8H-purin-8-one] | < 50 nM |
| CC(C)c1ccccc1-c1nc(N(C)C)c2[nH]c(=O)n(Cc3ccc(-c4nc(C(F)(F)F)cn4C)cc3)c2n1 [Compound I-533, 6-(Dimethylamino)-2-(2-isopropylphenyl)-9-(4-(1-methyl-4-(trifluoromethyl)-1H-imidazol-2-yl)benzyl)-7,9-dihydro-8H-purin-8-one] | < 50 nM |
| CC(=O)c1nc(-c2ccccc2C(C)C)nc2c1[nH]c(=O)n2Cc1ccc(-c2nc(C(F)(F)F)cn2C)cc1 [Compound I-534, 6-Acetyl-2-(2-isopropylphenyl)-9-(4-(1-methyl-4-(trifluoromethyl)-1H-imidazol-2-yl)benzyl)-7,9-dihydro-8H-purin-8-one] | 50 to 200 nM |
| COc1nc(-c2ccccc2C(C)C)nc2c1[nH]c(=O)n2Cc1ccc(-c2nc(C(F)(F)F)cn2C)cc1 [Compound I-535, 2-(2-Isopropylphenyl)-6-methoxy-9-(4-(1-methyl-4-(trifluoromethyl)-1H-imidazol-2-yl)benzyl)-7,9-dihydro-8H-purin-8-one] | < 50 nM |
| Cc1cnc(-c2ccc(Cn3c(=O)[nH]c4cnc(-c5ccccc5C(C)C)nc43)cc2)n1C(C)C [Compound I-536, 9-(4-(1-Isopropyl-5-methyl-1H-imidazol-2-yl)benzyl)-2-(2-isopropylphenyl)-7,9-dihydro-8H-purin-8-one] | < 50 nM |
| Cc1cn(C(C)C)c(-c2ccc(Cn3c(=O)[nH]c4cnc(-c5ccccc5C(C)C)nc43)cc2)n1 [Compound I-537, 9-(4-(1-isopropyl-4-methyl-1H-imidazol-2-yl)benzyl)-2-(2-isopropylphenyl)-7,9-dihydro-8H-purin-8-one] | < 50 nM |
| CC(=O)Nc1cn(C)c(-c2ccc(Cn3c(=O)[nH]c4cnc(-c5ccccc5C(C)C)nc43)cc2)n1 [Compound I-538, N-(2-(4-((2-(2-isopropylphenyl)-8-oxo-7,8-dihydro-9H-purin-9-yl)methyl)phenyl)-1-methyl-1H-imidazol-4-yl)acetamide] | 50 to 200 nM |
| CC(C)c1ccccc1-c1ncc2[nH]c(=O)n(Cc3ccc(-c4cn[nH]c4)cc3)c2n1 [Compound I-539, 9-(4-(1H-Pyrazol-4-yl)benzyl)-2-(2-isopropylphenyl)-7,9-dihydro-8H-purin-8-one] | 200 to 2000 nM |
| CC(C)c1ccccc1-c1ncc2[nH]c(=O)n(Cc3ccc(-c4cnn(C5CCNCC5)c4)cc3)c2n1 [Compound I-540, 2-(2-isopropylphenyl)-9-(4-(1-(piperidin-4-yl)-1H-pyrazol-4-yl)benzyl)-7,9-dihydro-8H-purin-8-one] | 200 to 2000 nM |
| CC(C)c1ccccc1-c1ncc2c(n1)n(Cc1ccc(-c3nc(C#N)cn3C)cc1)c(=O)n2C [Compound I-541, 2-(4-((2-(2-Isopropylphenyl)-7-methyl-8-oxo-7,8-dihydro-9H-purin-9-yl)methyl)phenyl)-1-methyl-1H-imidazole-4-carbonitrile] | < 50 nM |
| Cc1cc(CO)n(-c2ccc(Cn3c(=O)[nH]c4cnc(-c5ccccc5C5CC5)nc43)cc2)n1 [Compound I-542, 2-(2-Cyclopropylphenyl)-9-(4-(5-(hydroxymethyl)-3-methyl-1H-pyrazol-1-yl)benzyl)-7,9-dihydro-8H-purin-8-one] | < 50 nM |
| COC(=O)N1CCC(c2ccn(-c3ccc(Cn4c(=O)[nH]c5cnc(-c6ccccc6C(C)C)nc54)cc3)n2)CC1 [Compound I-543, Methyl 4-(1-(4-((2-(2-isopropylphenyl)-8-oxo-7,8-dihydro-9H-purin-9-yl)methyl)phenyl)-1H-pyrazol-3-yl)piperidine-1-carboxylate] | < 50 nM |
| CC(O)c1ccccc1-c1ncc2[nH]c(=O)n(Cc3ccc(-c4nc(C(F)(F)F)cn4C)cc3)c2n1 (stereo not shown) [Compound I-544, 2-(2-(1-Hydroxyethyl)phenyl)-9-(4-(1-methyl-4-(trifluoromethyl)-1H-imidazol-2-yl)benzyl)-7,9-dihydro-8H-purin-8-one] | 50 to 200 nM |

— patent US10189841B2, “Purinones as ubiquitin-specific protease 1 inhibitors” (Forma Therapeutics, Inc., priority 2015, dated 2019)
